In patent US8962596B2 (Array BioPharma Inc., priority 2010, dated 2015) one finds IC50 data, which are given here for 15 compounds.

For orientation: IC50 means the concentration that gives 50% inhibition. Read a low IC50 as higher potency.

What all share (assay type): biochemical
The target in assay [1] is T1, Human Tyk2 kinase domain (Homo sapiens, UniProt P29597).
T1 construct: comprising amino acids 886 to 1187 with 10 additional histidine residues; 10xHis (histidine tag) (C, cleaved yes); made in house
T1 sequence (P29597 886-1187): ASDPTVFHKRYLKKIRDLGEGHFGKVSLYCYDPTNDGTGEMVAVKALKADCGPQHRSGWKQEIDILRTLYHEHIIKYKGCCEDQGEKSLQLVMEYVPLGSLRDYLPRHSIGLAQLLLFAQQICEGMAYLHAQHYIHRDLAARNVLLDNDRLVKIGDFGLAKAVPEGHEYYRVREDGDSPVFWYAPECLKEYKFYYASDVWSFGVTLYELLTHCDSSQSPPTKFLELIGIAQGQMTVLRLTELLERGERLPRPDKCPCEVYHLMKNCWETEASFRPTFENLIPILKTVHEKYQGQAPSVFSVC
Put plainly: Tyk2 Inhibition Assay (Omnia kinase fluorescence peptide substrate assay). The note with it: averaged IC50 ranges; assay of Example A; 10 μM (Km app) or 1 mM ATP, 2 nM Tyk2. The essentials: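 2 nM His-tag-cleaved kinase domain (aa 886–1187) with 8 μM Omnia Y12 peptide, 10 μM (Km app) or 1 mM ATP, pH 7.4 HEPES/10 mM MgCl2, 2% DMSO. Fluorescence (ex 360/em 485 nm) every 50 s for 45 min; IC50 from 4-parameter fit of POC, top dose 10 μM.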

Assay [2] addresses T2, JAK1 (Homo sapiens, UniProt P23458).
T2 construct: purchased Invitrogen Corporation, Carlsbad, Calif; PV4775
Nature of the assay: JAK1 Inhibition Assay (Omnia kinase fluorescence peptide substrate assay). The note with it: averaged IC50 ranges; assay of Example B; 40 μM (Km app) or 1 mM ATP, 15 nM JAK1.

Assay [3] concerns the target T3, JAK3 (Homo sapiens, UniProt P52333).
T3 construct: purchased Invitrogen Corporation, Carlsbad, Calif; PV4080
T3 sequence (P52333 1-1124): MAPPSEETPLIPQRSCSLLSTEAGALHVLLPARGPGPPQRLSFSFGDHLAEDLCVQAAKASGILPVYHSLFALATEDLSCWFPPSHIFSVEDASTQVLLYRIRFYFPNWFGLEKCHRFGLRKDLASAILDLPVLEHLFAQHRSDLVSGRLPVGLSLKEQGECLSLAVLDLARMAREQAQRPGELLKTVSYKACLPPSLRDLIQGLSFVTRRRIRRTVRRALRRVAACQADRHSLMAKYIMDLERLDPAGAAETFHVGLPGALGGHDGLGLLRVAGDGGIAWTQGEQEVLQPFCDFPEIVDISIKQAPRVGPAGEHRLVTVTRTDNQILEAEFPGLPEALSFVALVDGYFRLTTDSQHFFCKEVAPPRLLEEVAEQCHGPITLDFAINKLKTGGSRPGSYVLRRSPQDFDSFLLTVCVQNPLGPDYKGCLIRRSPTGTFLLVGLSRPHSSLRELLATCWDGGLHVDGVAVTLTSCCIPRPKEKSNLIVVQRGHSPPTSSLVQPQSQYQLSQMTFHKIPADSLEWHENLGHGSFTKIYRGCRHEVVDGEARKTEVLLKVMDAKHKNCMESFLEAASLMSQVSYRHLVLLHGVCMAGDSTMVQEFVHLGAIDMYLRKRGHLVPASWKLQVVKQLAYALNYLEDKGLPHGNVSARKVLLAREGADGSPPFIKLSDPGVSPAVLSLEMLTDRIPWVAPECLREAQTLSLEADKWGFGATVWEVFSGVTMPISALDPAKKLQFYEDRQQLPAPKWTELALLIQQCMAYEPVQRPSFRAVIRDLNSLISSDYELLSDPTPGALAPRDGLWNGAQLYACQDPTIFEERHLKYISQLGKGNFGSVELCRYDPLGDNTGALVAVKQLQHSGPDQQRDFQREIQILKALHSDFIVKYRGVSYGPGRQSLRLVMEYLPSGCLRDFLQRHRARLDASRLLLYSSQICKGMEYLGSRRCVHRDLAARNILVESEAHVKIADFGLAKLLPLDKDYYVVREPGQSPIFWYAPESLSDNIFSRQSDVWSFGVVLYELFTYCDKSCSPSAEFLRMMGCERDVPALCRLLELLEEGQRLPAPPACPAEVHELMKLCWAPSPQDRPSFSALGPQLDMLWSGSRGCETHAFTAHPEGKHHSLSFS
Put plainly: JAK3 Inhibition Assay (Omnia kinase fluorescence peptide substrate assay). The note with it: averaged IC50 ranges; assay of Example D; 10 μM (Km app) or 1 mM ATP, 2.5 nM JAK3. The gist of the method:
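Kinase at 2.5 nM with 10 µM Omnia Y7 peptide and 10 µM (Km app) or 1 mM ATP in 25 mM HEPES pH 7.4, 10 mM MgCl2, 1 mM DTT, 0.01% Triton X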

The target of assay [4] is T4, JAK2 (Homo sapiens, UniProt O60674).
T4 construct: purchased Invitrogen Corporation, Carlsbad, Calif; PV4288
Put plainly: JAK2 Inhibition Assay (Omnia kinase fluorescence peptide substrate assay). Particulars: averaged IC50 ranges; assay of Example C; 25 μM (Km app) or 1 mM ATP, 5 nM JAK2. The gist of the method: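 A 10-point, 3-fold compound series (top 10 μM, 2% DMSO) was tested against 5 nM JAK2 with 10 μM Omnia Y7 substrate and either 1 mM or 25 μM (Km app) ATP. Buffer: pH 7.4 HEPES, MgCl2, Triton X-100, DTT. Sox fluorescence was monitored kinetically for 45 min; IC50 is the concentration giving 50 POC on a 4-parameter fit.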

Structures can show the parent of a compound that is named as a salt. Where only a bound is given, the exact number is not on record here.

T2 sequence (P23458 whole entry): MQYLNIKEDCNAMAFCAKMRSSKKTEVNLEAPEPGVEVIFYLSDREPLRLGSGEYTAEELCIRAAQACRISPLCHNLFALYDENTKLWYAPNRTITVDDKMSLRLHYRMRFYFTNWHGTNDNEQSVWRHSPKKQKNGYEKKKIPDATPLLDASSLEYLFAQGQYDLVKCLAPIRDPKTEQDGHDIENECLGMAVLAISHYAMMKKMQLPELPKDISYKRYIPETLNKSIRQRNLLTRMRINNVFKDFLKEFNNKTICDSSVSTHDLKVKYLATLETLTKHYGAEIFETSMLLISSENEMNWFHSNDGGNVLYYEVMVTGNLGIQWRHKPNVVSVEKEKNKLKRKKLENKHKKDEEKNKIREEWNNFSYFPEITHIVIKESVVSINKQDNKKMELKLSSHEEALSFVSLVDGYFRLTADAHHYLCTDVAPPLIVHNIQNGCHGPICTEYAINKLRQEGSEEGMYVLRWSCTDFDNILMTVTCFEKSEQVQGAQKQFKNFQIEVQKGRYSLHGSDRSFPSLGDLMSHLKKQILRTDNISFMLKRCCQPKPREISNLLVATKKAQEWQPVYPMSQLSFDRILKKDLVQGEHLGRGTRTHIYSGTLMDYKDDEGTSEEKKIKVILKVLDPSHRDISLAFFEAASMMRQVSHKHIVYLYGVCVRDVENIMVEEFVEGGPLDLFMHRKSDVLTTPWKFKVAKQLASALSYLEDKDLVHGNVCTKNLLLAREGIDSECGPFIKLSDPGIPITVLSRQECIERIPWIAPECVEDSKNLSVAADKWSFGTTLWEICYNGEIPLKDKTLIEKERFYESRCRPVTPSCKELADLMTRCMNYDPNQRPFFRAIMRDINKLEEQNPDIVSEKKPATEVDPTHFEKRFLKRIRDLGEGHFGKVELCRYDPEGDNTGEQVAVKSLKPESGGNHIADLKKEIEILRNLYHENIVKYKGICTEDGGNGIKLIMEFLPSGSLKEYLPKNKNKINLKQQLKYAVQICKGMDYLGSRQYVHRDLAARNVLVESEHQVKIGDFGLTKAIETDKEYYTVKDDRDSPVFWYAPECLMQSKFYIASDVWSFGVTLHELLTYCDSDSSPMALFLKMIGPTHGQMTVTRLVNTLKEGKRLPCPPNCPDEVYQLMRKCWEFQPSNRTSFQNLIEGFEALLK
T4 sequence (O60674 whole entry): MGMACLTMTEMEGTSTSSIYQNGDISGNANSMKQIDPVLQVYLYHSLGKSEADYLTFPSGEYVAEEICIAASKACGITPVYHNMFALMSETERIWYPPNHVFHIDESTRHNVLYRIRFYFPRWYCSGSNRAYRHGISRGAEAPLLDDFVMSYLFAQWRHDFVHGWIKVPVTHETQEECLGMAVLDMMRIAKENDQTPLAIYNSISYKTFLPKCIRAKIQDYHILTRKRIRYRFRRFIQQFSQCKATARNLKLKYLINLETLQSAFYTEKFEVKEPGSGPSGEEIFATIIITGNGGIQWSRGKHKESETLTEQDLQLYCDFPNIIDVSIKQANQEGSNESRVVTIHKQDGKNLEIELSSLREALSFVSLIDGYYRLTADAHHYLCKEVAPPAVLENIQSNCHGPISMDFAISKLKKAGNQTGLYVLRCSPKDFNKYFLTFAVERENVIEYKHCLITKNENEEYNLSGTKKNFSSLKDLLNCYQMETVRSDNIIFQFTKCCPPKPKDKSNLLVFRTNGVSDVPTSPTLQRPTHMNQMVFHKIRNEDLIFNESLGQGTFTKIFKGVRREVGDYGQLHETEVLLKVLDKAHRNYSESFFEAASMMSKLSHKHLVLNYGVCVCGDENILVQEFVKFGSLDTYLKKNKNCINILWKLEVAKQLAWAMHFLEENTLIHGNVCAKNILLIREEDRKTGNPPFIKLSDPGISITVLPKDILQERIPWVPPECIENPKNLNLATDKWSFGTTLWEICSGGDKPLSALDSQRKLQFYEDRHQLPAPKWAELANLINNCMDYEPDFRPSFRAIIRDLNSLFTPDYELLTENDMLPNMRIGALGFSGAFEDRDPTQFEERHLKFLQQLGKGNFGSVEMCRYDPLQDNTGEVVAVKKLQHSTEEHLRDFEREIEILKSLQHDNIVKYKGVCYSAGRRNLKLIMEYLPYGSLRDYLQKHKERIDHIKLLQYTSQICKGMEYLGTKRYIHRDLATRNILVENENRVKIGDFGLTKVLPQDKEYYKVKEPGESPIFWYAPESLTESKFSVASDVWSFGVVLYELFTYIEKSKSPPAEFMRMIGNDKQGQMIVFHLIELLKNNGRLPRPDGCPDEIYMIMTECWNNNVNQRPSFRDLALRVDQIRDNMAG

Consider `CC(C#N)Cn1cc(-c2nc(-c3ccc(N4CCOCC4)cc3)cc3nccn23)cn1` (stereo not drawn) [Example 119, 2-methyl-3-(4-(7-(4-morpholinophenyl)imidazo[1,2-c]pyrimidin-5-yl)-1H-pyrazol-1-yl)propanenitrile], for which the half-maximal inhibitory concentration (IC50) in assay [1] lay in the range of 10 to 100 nM; in assay [2], 10 to 100 nM; in assay [3] it was 100 to 1000 nM; in assay [4], 10 to 100 nM.

On to `N#CCCn1cc(-c2nc(-c3ccc(N4CCOCC4)cc3)cc3nccn23)cn1` [Example 120, 3-(4-(7-(4-morpholinophen-yl)imidazo[1,2-c]pyrimidin-5-yl)-1H-pyrazol-1-yl)propanenitrile], for which the concentration for half-maximal inhibition (IC50) in assay [1] is under 10 nM; in assay [2], 10 to 100 nM; in assay [3], over 1000 nM; in assay [4] it was 10 to 100 nM.

As for `Cc1nn(C(CC#N)C2CCCC2)cc1-c1nc(-c2ccc(N3CCOCC3)cc2)cc2nccn12` (stereo not drawn) [Example 121, 3-Cyclopentyl-3-(3-methyl-4-(7-(4-morpholinophenyl)imidazo[1,2-c]pyrimidin-5-yl)-1H-pyrazol-1-yl)propanenitrile], the half-maximal inhibitory concentration (IC50) in assay [1] was under 10 nM; in assay [2], 100 to 1000 nM; in assay [3] it was over 1000 nM; in assay [4], 10 to 100 nM.

As for `CC(C)(C)NC(=O)c1cc2nccn2c(-c2cnn(C(CC#N)C3CC3)c2)n1` (stereo not drawn) [Example 122, N-tert-butyl-5-(1-(2-cyano-1-cyclopropylethyl)-1H-pyrazol-4-yl)imidazo[1,2-c]pyrimidine-7-carboxamide], the IC50 in assay [1] was 100 to 1000 nM; in assay [2], over 1000 nM; in assay [3], over 1000 nM; in assay [4], over 1000 nM.

On to `N#CCC(C1CC1)n1cc(-c2nc(C(=O)NC3CCCCC3)cc3nccn23)cn1` (stereo not drawn) [Example 123, 5-(1-(2-Cyano-1-cyclopropylethyl)-1H-pyrazol-4-yl)-N-cyclohexylimidazo[1,2-c]pyrimidine-7-carboxamide], for which the IC50 was 100 to 1000 nM in assay [1], over 1000 nM in assay [2], over 1000 nM in assay [3] and over 1000 nM in assay [4].

`N#CCC(C1CC1)n1cc(-c2nc(C(=O)NC3CCC3)cc3nccn23)cn1` (stereo not drawn) [Example 124, 5-(1-(2-Cyano-1-cyclopropylethyl)-1H-pyrazol-4-yl)-N-cyclobutylimidazo[1,2-c]pyrimidine-7-carboxamide]: the 50% inhibitory concentration (IC50) in assay [1] is 100 to 1000 nM; in assay [2], over 1000 nM; in assay [3] it was over 1000 nM; in assay [4] it was over 1000 nM.

In the case of `N#CCC(C1CC1)n1cc(-c2nc(C(=O)Nc3ccccn3)cc3nccn23)cn1` (stereo not drawn) [Example 125, 5-(1-(2-cyano-1-cyclopropylethyl)-1H-pyrazol-4-yl)-N-(pyridin-2-yl)imidazo[1,2-c]pyrimidine-7-carboxamide], the IC50 is 100 to 1000 nM in assay [1], 100 to 1000 nM in assay [2], over 1000 nM in assay [3] and over 1000 nM in assay [4].

With `Cn1cc(-c2cc3nccn3c(-c3ccn(C(CC#N)C4CC4)c3)n2)cn1` (stereo not drawn) [Example 126, 3-Cyclopropyl-3-(3-(7-(1-methyl-1H-pyrazol-4-yl)imidazo[1,2-c]pyrimidin-5-yl)-1H-pyrrol-1-yl)propanenitrile], the half-maximal inhibitory concentration (IC50) in assay [1] was under 10 nM; in assay [2] it was 10 to 100 nM; in assay [3], 100 to 1000 nM; in assay [4] it was 10 to 100 nM.

Turning to `Cn1cc(-c2cc3nccn3c(-c3ccn(C4(CC#N)CNC4)c3)n2)cn1` [Example 127, 2-(3-(3-(7-(1-Methyl-1H-pyrazol-4-yl)imidazo[1,2-c]pyrimidin-5-yl)-1H-pyrrol-1-yl)azetidin-3-yl)acetonitrile trifluoroacetate], the IC50 in assay [1] was 10 to 100 nM; in assay [2], 100 to 1000 nM; in assay [3], over 1000 nM; in assay [4], 100 to 1000 nM.

Regarding `Cn1cc(-c2cc3nccn3c(-c3ccn(C4(CC#N)CN(CC(F)(F)F)C4)c3)n2)cn1` [Example 128, 2-(3-(3-(7-(1-Methyl-1H-pyrazol-4-yl)imidazo[1,2-c]pyrimidin-5-yl)-1H-pyrrol-1-yl)-1-(2,2,2-trifluoroethyl)azetidin-3-yl)acetonitrile], the IC50 in assay [1] is under 10 nM; in assay [2], 100 to 1000 nM; in assay [3] it was over 1000 nM; in assay [4] it was 10 to 100 nM.

For `Cn1cc(-c2cc3nccn3c(-c3ccn(C4(CC#N)CN(C(=O)OC(C)(C)C)C4)n3)n2)cn1` [Example 129, Tert-butyl 3-(cyanomethyl)-3-(3-(7-(1-methyl-1H-pyrazol-4-yl)imidazo[1,2-c]pyrimidin-5-yl)-1H-pyrazol-1-yl)azetidine-1-carboxylate], the half-maximal inhibitory concentration (IC50) in assay [1] is 100 to 1000 nM; in assay [2], over 1000 nM; in assay [3], over 1000 nM; in assay [4] it was over 1000 nM.

`Cn1cc(-c2cc3nccn3c(-c3ccn(C4(CC#N)CNC4)n3)n2)cn1` [Example 130, 2-(3-(3-(7-(1-Methyl-1H-pyrazol-4-yl)imidazo[1,2-c]pyrimidin-5-yl)-1H-pyrazol-1-yl)azetidin-3-yl)acetonitrile hydrochloride]: the IC50 in assay [1] is 100 to 1000 nM; in assay [2], over 1000 nM; in assay [3] it was over 1000 nM; in assay [4], 100 to 1000 nM.

In the case of `Cn1cc(-c2cc3nccn3c(-c3ccn(C4(CC#N)CN(CC(F)(F)F)C4)n3)n2)cn1` [Example 131, 2-(3-(3-(7-(1-Methyl-1H-pyrazol-4-yl)imidazo[1,2-c]pyrimidin-5-yl)-1H-pyrazol-1-yl)-1-(2,2,2-trifluoroethyl)azetidin-3-yl)acetonitrile], the IC50 in assay [1] was 10 to 100 nM; in assay [2], over 1000 nM; in assay [3], over 1000 nM; in assay [4], 100 to 1000 nM.

On to `Cn1cc(-c2cc3nccn3c(-c3ccn(C(CC#N)C4CC4)n3)n2)cn1` (stereo not drawn) [Example 132, 3-Cyclopropyl-3-(3-(7-(1-methyl-1H-pyrazol-4-yl)imidazo[1,2-c]pyrimidin-5-yl)-1H-pyrazol-1-yl)propanenitrile], for which the IC50 in assay [1] is 10 to 100 nM; in assay [2], over 1000 nM; in assay [3], 100 to 1000 nM; in assay [4], 100 to 1000 nM.

Regarding `Cn1cc(-c2cc3nccn3c(-c3cnn(C4(CC#N)CCN(S(=O)(=O)C(F)(F)F)C4)c3)n2)cn1` (stereo not drawn) [Example 133, 2-(3-(4-(7-(1-methyl-1H-pyrazol-4-yl)imidazo[1,2-c]pyrimidin-5-yl)-1H-pyrazol-1-yl)-1-(trifluoromethylsulfonyl)pyrrolidin-3-yl)acetonitrile], the half-inhibitory concentration (IC50) in assay [1] was under 10 nM; in assay [2], 10 to 100 nM; in assay [3], 100 to 1000 nM; in assay [4], 10 to 100 nM.
